The structures appear in SMILES notation.

Consider twelve molecules from PMC10051310, “Antiproliferative Activity, Multikinase Inhibition, Apoptosis- Inducing Effects and Molecular Docking of Novel Isatin–Purine Hybrids” (Medicina, 2023).

For one series, the system named is MDA-MB-231. In words: MTT cytotoxicity assay, MDA-MB-231. Particulars: Homo sapiens, MDA-MB-231, 24 h, read-out: In Vitro Cytotoxicity IC50 MDA-MB-231. In general terms: Formazan colour is commonly taken as a measure of viable cells.
For the next series, the system named is HeLa. In words: MTT cytotoxicity assay, HeLa. Particulars: Homo sapiens, 24 h, read-out: In Vitro Cytotoxicity IC50 HeLa.
The subject of a further series is MCF-7. Put plainly: MTT cytotoxicity assay, MCF-7. Particulars: Homo sapiens, MCF7, 24 h, read-out: In Vitro Cytotoxicity IC50 MCF-7.
The next series has as its system HepG2. Put plainly: MTT cytotoxicity assay, HepG2. The settings on record: Homo sapiens, HepG2, 24 h, read-out: In Vitro Cytotoxicity IC50 HepG2.
Series [1] deals with HepG2, MCF-7, MDA-MB-231 and HeLa cell lines. In words: MTT cytotoxicity assay, summary over all four cell lines. Particulars: Homo sapiens, read-out: IC50 against all tested cell lines.
Experimental: Sunitinib, a well-known multi-kinase inhibitor, was used as a reference compound.
After incubation for 48 h, the cells were treated with different concentrations of the synthesized hybrid compounds for 24 h. After the addition of 20 μL MTT (5 mg/mL), the plates were incubated for 4 h and then 100 μL Dimethyl sulfoxide (DMSO) was added to each well to dissolve the insoluble purple formazan formed. […] The relative cell viability percentage was calculated as (A570 of treated samples/A570 of untreated sample) × 100.

Take `O=C1Nc2ccccc2/C1=N\Nc1ncnc2[nH]cnc12` [Compound 11, (E)-3-(2-(9H-purin-6-yl)hydrazineylidene)indolin-2-one]: the melting point was above 300 °C. Further, the IC50 with MDA-MB-231 was 24.8 ± 1.9 µM. Besides, in the series with HeLa, the IC50 stood at 17.6 ± 1.4 µM. Besides, in the series with MCF-7, the IC50 is 15.6 ± 1.3 µM. Moreover, the IC50 in the series on HepG2 is 12.9 ± 1 µM.
Take `O=C1Nc2ccc([N+](=O)[O-])cc2/C1=N\Nc1ncnc2[nH]cnc12` [Compound 16, (E)-3-(2-(9H-purin-6-yl)hydrazineylidene)-5-nitroindolin-2-one]: the melting point is above 300 °C. Besides, the IC50 in the series on MDA-MB-231 was 67.4 ± 3.2 µM. Moreover, the IC50 with HeLa is 69.5 ± 3.6 µM. Moreover, the IC50 with MCF-7 was determined as 58.3 ± 3.2 µM. Besides, in the series on HepG2, the IC50 stood at 39.7 ± 2.5 µM.
The like results for `O=C1Nc2ccccc2C1=NNC(=O)c1ccc(Nc2ncnc3[nH]cnc23)cc1` [Compound 4, 4-((9H-purin-6-yl)amino)-N’-(2-oxoindolin-3-ylidene)benzohydrazide] were, in that order, above 300 °C, 59.7 ± 2.9 µM, 62.4 ± 3.4 µM, 47.3 ± 3 µM and 54.6 ± 3.1 µM.
Taken in the same sequence, the figures for `O=C1Nc2ccc(Cl)cc2C1=NNC(=O)c1ccc(Nc2ncnc3[nH]cnc23)cc1` [Compound 5, 4-((9H-purin-6-yl)amino)-N’-(5-chloro-2-oxoindolin-3-ylidene)benzohydrazide] were above 300 °C, 82.1 ± 3.8 µM, above 100 µM, above 100 µM and 88.1 ± 4 µM.
Consider `O=C1Nc2ccc(Cl)cc2/C1=N\Nc1ncnc2[nH]cnc12` [Compound 12, (E)-3-(2-(9H-purin-6-yl)hydrazineylidene)-5-chloroindolin-2-one], for which the melting point is 296 to 298 °C. In addition, the IC50 in the series on MDA-MB-231 stood at 41.3 ± 2.5 µM. Also, the IC50 in series [1] was in the range of 18.1 to 53.5 µM. In addition, the IC50 in the series with HeLa stood at 46.7 ± 2.8 µM. Moreover, in the series with MCF-7, the IC50 is 33 ± 2.3 µM. For the same molecule, the IC50 in the series with HepG2 came to 26.4 ± 1.8 µM.
`O=C1Nc2ccc(F)cc2/C1=N\Nc1ncnc2[nH]cnc12` [Compound 13, (E)-3-(2-(9H-purin-6-yl)hydrazineylidene)-5-fluoroindolin-2-one]: the melting point is above 300 °C. Further, the IC50 with MDA-MB-231 was determined as 45.2 ± 2.7 µM. Besides, in series [1], the IC50 was 18.1 to 53.5 µM. Besides, the IC50 in the series on HeLa worked out at 51.2 ± 3 µM. Besides, the IC50 with MCF-7 was determined as 38.8 ± 2.5 µM. The IC50 with HepG2 amounted to 31.7 ± 2.1 µM.
The molecule `Cc1ccc2c(c1)C(=NNC(=O)c1ccc(Nc3ncnc4[nH]cnc34)cc1)C(=O)N2` [Compound 7, 4-((9H-purin-6-yl)amino)-N’-(5-methyl-2-oxoindolin-3-ylidene)benzohydrazide] came in with a melting point above 300 °C. Also, the IC50 with MDA-MB-231 was determined as 91.6 ± 4.5 µM. For the same molecule, the IC50 with HeLa was above 100 µM. Also, the IC50 in the series on MCF-7 amounted to 76.4 ± 3.7 µM. Moreover, in the series with HepG2, the IC50 came out at 60.4 ± 3.2 µM.
In the case of `CCN(CC)CCNC(=O)c1c(C)[nH]c(/C=C2\C(=O)Nc3ccc(F)cc32)c1C` [Sunitinib, reference compound], the IC50 with MDA-MB-231 was 8.41 ± 0.7 µM; in the series with HeLa, 7.48 ± 0.6 µM; in the series on MCF-7, 5.19 ± 0.4 µM; in the series with HepG2 it was 6.82 ± 0.5 µM.
Regarding `O=C1Nc2ccc([N+](=O)[O-])cc2C1=NNC(=O)c1ccc(Nc2ncnc3[nH]cnc23)cc1` [Compound 9, 4-((9H-purin-6-yl)amino)-N’-(5-nitro-2-oxoindolin-3-ylidene)benzohydrazide], the melting point is above 300 °C. For the same molecule, the IC50 with MDA-MB-231 is 72.2 ± 3.4 µM. Besides, in the series on HeLa, the half-inhibitory concentration (IC50) is 84.6 ± 4.1 µM. Further, in the series on MCF-7, the IC50 is 65 ± 3.4 µM. Besides, in the series on HepG2, the IC50 was 75.6 ± 3.5 µM.
`Cc1ccc2c(c1)/C(=N\Nc1ncnc3[nH]cnc13)C(=O)N2` [Compound 14, (E)-3-(2-(9H-purin-6-yl)hydrazineylidene)-5-methylindolin-2-one] showed a melting point of 294 to 296 °C. The IC50 in the series with MDA-MB-231 was 32.5 ± 2.2 µM. In series [1], the IC50 was in the range of 18.1 to 53.5 µM. In addition, in the series with HeLa, the IC50 was 43.5 ± 2.7 µM. In the series on MCF-7, the IC50 amounted to 27.5 ± 2.1 µM. Besides, the half-maximal inhibitory concentration (IC50) in the series on HepG2 amounted to 18.1 ± 1.3 µM.
For `O=C1Nc2ccc(F)cc2C1=NNC(=O)c1ccc(Nc2ncnc3[nH]cnc23)cc1` [Compound 6, 4-((9H-purin-6-yl)amino)-N’-(5-fluoro-2-oxoindolin-3-ylidene)benzohydrazide], the melting point is above 300 °C. Moreover, in the series on MDA-MB-231, the IC50 was 19.1 ± 1.4 µM. Besides, the IC50 in series [1] lay in the range of 18.1 to 53.5 µM. In the series with HeLa, the IC50 was determined as 30.7 ± 2.3 µM. For the same molecule, in the series with MCF-7, the IC50 is 22.3 ± 1.8 µM. For the same molecule, the IC50 in the series on HepG2 came to 42.4 ± 2.7 µM.
In the case of `COc1ccc2c(c1)C(=NNC(=O)c1ccc(Nc3ncnc4[nH]cnc34)cc1)C(=O)N2` [Compound 8, 4-((9H-purin-6-yl)amino)-N’-(5-methoxy-2-oxoindolin-3-ylidene)benzohydrazide], the melting point was above 300 °C. The half-inhibitory concentration (IC50) in the series with MDA-MB-231 turned out to be 29.8 ± 2 µM. The IC50 in series [1] was in the range of 18.1 to 53.5 µM. For the same molecule, the IC50 with HeLa was determined as 53.5 ± 3.2 µM. The half-maximal inhibitory concentration (IC50) with MCF-7 came to 40.6 ± 2.7 µM. In addition, the half-maximal inhibitory concentration (IC50) with HepG2 amounted to 48.1 ± 2.9 µM.

Broadly, the IC50 is the point on the concentration scale where inhibition reaches its midpoint. In general, melting point refers to the temperature of the solid-liquid transition.
